The values that follow come from publication PMC11173897, “Computational Docking as a Tool in Guiding the Drug Design of Rutaecarpine Derivatives as Potential SARS-CoV-2 Inhibitors” (Molecules, 2024).

For assay [1], the system named is wild-type SARS-CoV-2 pseudovirus. The experiment in a line: microbe, parasite or virus in culture. Format: cell-based. As to conditions: for IC50: Severe acute respiratory syndrome-related coronavirus, HEK-293T, n = 5, read-out: IC50, blocking wild-type viral entry.
Assay [2] concerns omicron SARS-CoV-2 pseudovirus. The experiment in a line: microbe, parasite or virus in culture. As to conditions: Severe acute respiratory syndrome-related coronavirus, HEK-293T; n = 5; read-out: IC50, entry of the omicron pseudovirus. Format: cell-based.

The IC50 is the concentration at which inhibition is half-maximal. Turning to `O=C1c2ccc(Nc3ccccc3)cc2NC2=NCCc3c2n1c1ccccc31` [RU-184], in assay [1], the “maximal inhibition compared with RU” value is “almost double that of RU” and the IC50 came out at 210 nM. For the same compound, in assay [2], the IC50 stood at 260 nM.
`O=c1c2ccc(Nc3ccccc3)cc2nc2n1CCc1c-2[nH]c2ccccc12` [RU-75]: in assay [1], the “maximal inhibition compared with RU” value is “almost double that of RU” and the half-inhibitory concentration (IC50) came out at 460 nM. Also, the IC50 in assay [2] is 320 nM.
Turning to `O=c1c2ccccc2nc2n1CCc1c-2[nH]c2ccccc12` [RU, rutaecarpine], the half-inhibitory concentration (IC50) in assay [1] stood at 1340 nM; in assay [2], 1010 nM.
